Source: ChEMBL document CHEMBL5715954, “Silencing c-Myc translation as a therapeutic strategy through targeting PI3Kδ and CK1ε in hematological malignancies” (Blood, 2017)

How the values were obtained:
Parameters in all cases: scale not given: the % may be the effect or the level left
[1] = biological target: T1, Myotonin-protein kinase (Homo sapiens) (UniProt Q09013); assay: Inhibition of human DMPK assessed as enzyme activity at 1 uM using KKRNRRLSVA as substrate preincubated for 20 mins followed by [gamma-33P]-ATP addition and measured after 120 mins by radiometric Hot-SpotSM Kinase assay relative to control
T1 sequence (whole entry): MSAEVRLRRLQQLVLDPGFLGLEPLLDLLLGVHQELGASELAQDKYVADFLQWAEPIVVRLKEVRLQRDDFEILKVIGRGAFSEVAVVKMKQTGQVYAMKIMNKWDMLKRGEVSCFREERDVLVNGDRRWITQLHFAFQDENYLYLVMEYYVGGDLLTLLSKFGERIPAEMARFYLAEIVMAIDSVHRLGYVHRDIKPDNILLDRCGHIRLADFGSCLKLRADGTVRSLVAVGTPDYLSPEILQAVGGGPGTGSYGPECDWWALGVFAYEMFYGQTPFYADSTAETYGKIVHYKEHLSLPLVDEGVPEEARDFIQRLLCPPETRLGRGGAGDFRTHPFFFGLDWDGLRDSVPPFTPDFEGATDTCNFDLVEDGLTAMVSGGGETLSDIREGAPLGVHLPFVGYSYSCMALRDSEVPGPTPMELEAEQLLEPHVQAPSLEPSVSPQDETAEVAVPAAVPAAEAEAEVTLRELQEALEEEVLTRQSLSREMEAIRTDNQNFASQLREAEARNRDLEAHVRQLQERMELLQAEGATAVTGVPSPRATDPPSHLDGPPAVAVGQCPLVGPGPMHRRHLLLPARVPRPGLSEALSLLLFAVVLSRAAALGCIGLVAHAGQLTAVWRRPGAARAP

[2] = biological target: T2, Tyrosine-protein kinase ITK/TSK (Homo sapiens) (UniProt Q08881); assay: Inhibition of human ITK assessed as enzyme activity at 1 uM using myelin basic protein as substrate preincubated for 20 mins followed by [gamma-33P]-ATP addition and measured after 120 mins by radiometric Hot-SpotSM Kinase assay relative to control
T2 sequence (whole entry): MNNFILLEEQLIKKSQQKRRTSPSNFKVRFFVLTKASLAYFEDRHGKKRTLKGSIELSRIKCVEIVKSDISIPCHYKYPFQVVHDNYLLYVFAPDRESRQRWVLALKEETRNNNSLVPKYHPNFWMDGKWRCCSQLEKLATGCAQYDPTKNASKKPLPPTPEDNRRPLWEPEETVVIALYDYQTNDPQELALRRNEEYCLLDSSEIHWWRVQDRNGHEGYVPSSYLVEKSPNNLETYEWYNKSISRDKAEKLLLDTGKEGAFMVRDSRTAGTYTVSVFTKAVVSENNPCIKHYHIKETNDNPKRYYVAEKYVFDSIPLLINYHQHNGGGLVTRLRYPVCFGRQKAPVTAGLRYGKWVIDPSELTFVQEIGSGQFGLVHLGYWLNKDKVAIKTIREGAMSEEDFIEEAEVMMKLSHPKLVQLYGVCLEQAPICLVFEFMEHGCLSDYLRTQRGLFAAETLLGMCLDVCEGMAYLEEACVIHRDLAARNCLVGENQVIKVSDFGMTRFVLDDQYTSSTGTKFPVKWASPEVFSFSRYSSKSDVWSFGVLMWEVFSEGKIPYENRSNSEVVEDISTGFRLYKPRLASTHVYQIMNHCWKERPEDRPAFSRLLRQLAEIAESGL

[3] = biological target: Tyrosine-protein kinase Fyn (Homo sapiens) (UniProt P06241); assay: Inhibition of human FYN assessed as enzyme activity at 1 uM using poly[Glu:Tyr] (4:1) as substrate preincubated for 20 mins followed by [gamma-33P]-ATP addition and measured after 120 mins by radiometric Hot-SpotSM Kinase assay relative to control
Chain of Tyrosine-protein kinase Fyn (Homo sapiens) (P06241 2-537 limits assumed): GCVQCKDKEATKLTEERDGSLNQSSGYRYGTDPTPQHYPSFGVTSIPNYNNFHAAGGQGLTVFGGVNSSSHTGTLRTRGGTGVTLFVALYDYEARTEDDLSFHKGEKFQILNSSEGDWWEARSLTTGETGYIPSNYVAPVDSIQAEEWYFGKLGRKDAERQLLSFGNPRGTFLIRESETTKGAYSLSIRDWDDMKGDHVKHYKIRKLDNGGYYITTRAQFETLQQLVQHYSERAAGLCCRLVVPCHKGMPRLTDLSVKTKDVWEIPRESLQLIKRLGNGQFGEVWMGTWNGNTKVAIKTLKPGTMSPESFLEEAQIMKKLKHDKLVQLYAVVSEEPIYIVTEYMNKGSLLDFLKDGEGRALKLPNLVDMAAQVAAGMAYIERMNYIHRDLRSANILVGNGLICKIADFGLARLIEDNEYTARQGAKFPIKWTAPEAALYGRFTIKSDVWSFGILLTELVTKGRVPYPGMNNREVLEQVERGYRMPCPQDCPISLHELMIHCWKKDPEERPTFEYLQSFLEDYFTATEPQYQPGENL

[4] = biological target: Tyrosine-protein kinase HCK (Homo sapiens) (UniProt P08631); assay: Inhibition of human HCK assessed as enzyme activity at 1 uM using KVEKIGEGTYGVVYK as substrate preincubated for 20 mins followed by [gamma-33P]-ATP addition and measured after 120 mins by radiometric Hot-SpotSM Kinase assay relative to control
Chain of Tyrosine-protein kinase HCK (Homo sapiens) (P08631 2-526 limits assumed): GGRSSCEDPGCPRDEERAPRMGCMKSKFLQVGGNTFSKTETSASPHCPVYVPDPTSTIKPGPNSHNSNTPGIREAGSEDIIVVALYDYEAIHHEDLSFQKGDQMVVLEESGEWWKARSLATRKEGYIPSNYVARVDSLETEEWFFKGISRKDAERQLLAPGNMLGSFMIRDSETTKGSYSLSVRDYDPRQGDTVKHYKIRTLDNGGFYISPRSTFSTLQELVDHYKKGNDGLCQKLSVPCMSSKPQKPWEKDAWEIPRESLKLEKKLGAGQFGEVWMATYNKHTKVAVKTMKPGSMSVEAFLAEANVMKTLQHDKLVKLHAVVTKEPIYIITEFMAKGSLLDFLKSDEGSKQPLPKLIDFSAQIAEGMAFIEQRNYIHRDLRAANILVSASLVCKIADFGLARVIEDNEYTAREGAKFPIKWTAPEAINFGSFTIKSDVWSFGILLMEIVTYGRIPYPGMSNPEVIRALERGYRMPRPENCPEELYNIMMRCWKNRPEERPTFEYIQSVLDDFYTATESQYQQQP

[5] = biological target: Receptor-type tyrosine-protein kinase FLT3 (Homo sapiens) (UniProt P36888); assay: Inhibition of human FLT3 assessed as enzyme activity at 1 uM using EAIYAAPFAKKK as substrate preincubated for 20 mins followed by [gamma-33P]-ATP addition and measured after 120 mins by radiometric Hot-SpotSM Kinase assay relative to control
Chain of Receptor-type tyrosine-protein kinase FLT3 (Homo sapiens) (P36888 whole entry): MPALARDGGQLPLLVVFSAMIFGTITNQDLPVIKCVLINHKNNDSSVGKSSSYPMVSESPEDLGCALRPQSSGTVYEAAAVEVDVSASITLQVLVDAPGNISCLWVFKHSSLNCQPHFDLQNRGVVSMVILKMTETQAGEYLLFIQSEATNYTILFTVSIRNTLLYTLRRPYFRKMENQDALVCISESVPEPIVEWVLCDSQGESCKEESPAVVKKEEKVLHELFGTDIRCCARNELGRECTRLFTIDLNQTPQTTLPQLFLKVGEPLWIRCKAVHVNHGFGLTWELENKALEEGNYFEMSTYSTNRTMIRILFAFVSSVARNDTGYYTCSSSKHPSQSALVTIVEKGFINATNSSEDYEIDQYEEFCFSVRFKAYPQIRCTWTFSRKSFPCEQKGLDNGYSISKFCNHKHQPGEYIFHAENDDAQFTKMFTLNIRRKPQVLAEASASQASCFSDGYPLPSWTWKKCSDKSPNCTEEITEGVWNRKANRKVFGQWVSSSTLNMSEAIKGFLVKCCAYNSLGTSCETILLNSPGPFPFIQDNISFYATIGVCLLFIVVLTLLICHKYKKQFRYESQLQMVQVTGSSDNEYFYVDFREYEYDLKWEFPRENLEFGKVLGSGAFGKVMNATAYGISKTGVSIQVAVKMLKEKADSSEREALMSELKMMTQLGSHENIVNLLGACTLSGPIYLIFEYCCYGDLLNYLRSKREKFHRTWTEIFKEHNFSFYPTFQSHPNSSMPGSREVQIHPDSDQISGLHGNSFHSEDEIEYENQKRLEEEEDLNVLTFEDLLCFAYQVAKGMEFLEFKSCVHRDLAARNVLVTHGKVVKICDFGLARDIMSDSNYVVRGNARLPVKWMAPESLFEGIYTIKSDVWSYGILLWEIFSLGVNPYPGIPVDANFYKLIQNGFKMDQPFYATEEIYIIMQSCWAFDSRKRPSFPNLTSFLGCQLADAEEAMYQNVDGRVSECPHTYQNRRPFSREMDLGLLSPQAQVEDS

[6] = biological target: T3, Tyrosine-protein kinase JAK3 (Homo sapiens) (UniProt P52333); assay: Inhibition of human JAK3 assessed as enzyme activity at 1 uM using GGEEEEYFELVKKKK as substrate preincubated for 20 mins followed by [gamma-33P]-ATP addition and measured after 120 mins by radiometric Hot-SpotSM Kinase assay relative to control
T3 sequence (whole entry): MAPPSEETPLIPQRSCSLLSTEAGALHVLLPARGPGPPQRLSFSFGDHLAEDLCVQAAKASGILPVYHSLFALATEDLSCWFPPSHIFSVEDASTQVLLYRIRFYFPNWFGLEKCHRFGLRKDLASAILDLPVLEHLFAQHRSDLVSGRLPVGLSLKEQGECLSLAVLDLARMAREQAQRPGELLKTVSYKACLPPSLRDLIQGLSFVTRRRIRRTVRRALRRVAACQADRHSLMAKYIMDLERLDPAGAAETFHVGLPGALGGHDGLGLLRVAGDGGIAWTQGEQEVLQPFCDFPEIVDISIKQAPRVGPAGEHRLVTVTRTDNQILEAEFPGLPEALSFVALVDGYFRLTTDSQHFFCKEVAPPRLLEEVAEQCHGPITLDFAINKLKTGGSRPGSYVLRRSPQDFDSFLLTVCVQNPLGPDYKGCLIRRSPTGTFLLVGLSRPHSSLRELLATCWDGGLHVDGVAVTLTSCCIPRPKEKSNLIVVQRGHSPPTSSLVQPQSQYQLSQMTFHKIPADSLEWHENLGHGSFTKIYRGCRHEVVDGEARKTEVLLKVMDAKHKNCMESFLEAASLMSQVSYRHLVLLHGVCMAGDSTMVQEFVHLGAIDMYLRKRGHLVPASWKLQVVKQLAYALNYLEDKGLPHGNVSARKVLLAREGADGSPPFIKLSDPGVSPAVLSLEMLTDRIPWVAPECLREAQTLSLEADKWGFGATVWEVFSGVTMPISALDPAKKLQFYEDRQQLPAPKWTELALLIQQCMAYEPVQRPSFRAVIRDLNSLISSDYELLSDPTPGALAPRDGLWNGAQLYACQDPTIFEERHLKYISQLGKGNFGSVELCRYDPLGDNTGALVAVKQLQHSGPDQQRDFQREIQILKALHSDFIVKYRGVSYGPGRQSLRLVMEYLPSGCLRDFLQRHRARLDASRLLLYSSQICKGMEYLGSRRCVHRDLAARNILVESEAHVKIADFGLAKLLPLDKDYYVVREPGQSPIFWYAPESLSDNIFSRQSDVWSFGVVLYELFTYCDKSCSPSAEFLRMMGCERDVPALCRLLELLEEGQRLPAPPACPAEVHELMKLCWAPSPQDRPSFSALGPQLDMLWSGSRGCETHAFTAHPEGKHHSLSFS

C[C@H](Nc1ncnc2nc[nH]c12)c1cc2cccc(Cl)c2c(=O)n1-c1ccccc1
Activity [1]: 106%
Activity [2]: 94.5%
Activity [3]: 103%
Activity [4]: 98.7%
Activity [5]: 101%
Activity [6]: 95.2%

CC[C@H](Nc1ncnc2[nH]cnc12)c1nc2cccc(F)c2c(=O)n1-c1ccccc1
Activity [1]: 104%
Activity [2]: 102%
Activity [3]: 100%
Activity [4]: 93.9%
Activity [5]: 99.3%
Activity [6]: 94.3%

CC(C)Oc1ccc(-c2nn([C@@H](C)c3oc4ccc(F)cc4c(=O)c3-c3cccc(F)c3)c3ncnc(N)c23)cc1F [UMBRALISIB]
Activity [1]: 100%
Activity [2]: 97.3%
Activity [3]: 99.7%
Activity [4]: 91%
Activity [5]: 95.5%
Activity [6]: 91.2%
